Literature values as cited in PMC12256174, “Next-Generation Oral Delivery Systems: Phytosomal Hinokitiol Tablets via REGEMAT 3D Bioprinter-Based 3D Printing for Enhanced Bioavailability” (Scientifica, 2025).
Converted amounts (≈) assume the structure as drawn.

CC(C)c1cccc(=O)c(O)c1 [Hinokitiol]
aqueous solubility: 1120 ± 20 µg/mL (≈ 6.82 mM)
